According to patent US8785491B2, “Pharmaceutical compositions and methods for treating age-related macular degeneration with melatonin analogues” (Takeda Pharmaceuticals U.S.A., Inc., priority 2008, dated 2014):
Like-named read-outs stand apart in the source and are kept apart here.

Columns and labels:
N18-RE-105 hybrid cells = assay: Effect against glutamate-induced cytotoxicity (LDH release)
Procedure: We used ramelteon and metabolite 1 (as synthesized in Example 1) in this study. Idebenone and vitamine E (α-tocopherol) were purchased from Wako Pure Chemical Industries (Osaka, Japan) and used as positive control. All other chemicals were purchased from standard sources.
For cytotoxicity studies, cells were plated in 96-well plates at a density of 5,000 cells per well in 0.1 ml of the above medium. After culturing for 24 hr, the medium was removed and replaced with medium containing 10 mM glutamate with or without various concentrations of compounds. After 24 hours of incubation, cytotoxicity was quantitated by the release of the cytosolic enzyme lactate dehydrogenase (LDH) into the culture medium. The percentage of cell viability in the presence of each of the test compounds was calculated from the following formula: % cell viability in the presence of compound={LDH activity (absorbance at 550 nm) in the culture medium with compound plus 10 mM glutamate−LDH activity in the control culture medium/LDH activity in the culture medium with 10 mM glutamate−LDH activity in the control culture medium}×100.

[1] = tested on: age-related macular degeneration; conditions: 3 mg daily at bedtime for at least three months; cited from earlier work
[2] = tested on: human retinal pigment epithelial (RPE) cells; conditions: added diurnally to RPE cell cultures for three consecutive days; cited from earlier work
[3] = tested on: melatonin MT1/MT2 receptors; conditions: cited from earlier work

COC1=C(OC)C(=O)C(CCCCCCCCCCO)=C(C)C1=O [Idebenone]
effect on cytotoxicity induced by 10 mM glutamate / cell viability (N18-RE-105 hybrid cells): cell viability was increased

COc1ccc2[nH]cc(CCNC(C)=O)c2c1 [melatonin]
visual acuity [1]: remained stable | effect on cytotoxicity induced by 10 mM glutamate / cell viability (N18-RE-105 hybrid cells): did not affect cell viability | H2O2-induced cell death and mitochondrial DNA damage [2]: markedly reduced

CCC(=O)NCC[C@@H]1CCc2cc(O)c3c(c21)CCO3 [metabolite 1, (S)—N-(2-[4-hydroxy-1,6,7,8-tetrahydro-2H-indeno[5,4-b]furan-8-yl]ethyl)propionamide]
effect on cytotoxicity induced by 10 mM glutamate / cell viability (N18-RE-105 hybrid cells): inhibited | cell death (absorbance, LDH) with varying amounts of compound (N18-RE-105 hybrid cells; 10 mM glutamate treated cell culture, increasing amount, FIG. 2): cell death is reduced | toxicity of glutamate over the basal viability (N18-RE-105 hybrid cells; highest concentration, 10 mM glutamate, FIGS. 1 and 2): completely prevented

CCC(=O)NCC[C@@H]1CCc2ccc3c(c21)CCO3 [ramelteon, (S)—N-[2-(1,6,7,8-tetrahydro-2H-indeno[5,4-b]furan-8-yl)ethyl]propionamide]
effect on cytotoxicity induced by 10 mM glutamate / cell viability (N18-RE-105 hybrid cells): did not affect cell viability | affinity for melatonin MT1/MT2 receptors [3]: high affinity

Cc1c(C)c2c(c(C)c1O)CC[C@@](C)(CCC[C@H](C)CCC[C@H](C)CCCC(C)C)O2 [tocopherol, α-tocopherol]
effect on cytotoxicity induced by 10 mM glutamate / cell viability (N18-RE-105 hybrid cells; 10 mM glutamate, 24 hours incubation, LDH release, FIG. 1): cell viability was increased
